Tests used:
[1] = system: collagen-induced arthritis; test: Anti-inflammatory effect on rats with collagen-induced arthritis model; format: in vivo, SD rats; settings: for histopathological slice of joint: rat with CIA
TNFα = biological target: T1, TNFα (Homo sapiens, UniProt P01375); test: In vitro L929 cell proliferation/cytotoxicity assay, TNFα activity inhibition; format: cell-based; settings: L929 cell line, TNFα 0.1 ng/ml, Act D 2 μg/ml; read-out: IC50 as TNFα antagonist
T1 construct: purchased
T1 sequence (P01375 77-233 limits assumed): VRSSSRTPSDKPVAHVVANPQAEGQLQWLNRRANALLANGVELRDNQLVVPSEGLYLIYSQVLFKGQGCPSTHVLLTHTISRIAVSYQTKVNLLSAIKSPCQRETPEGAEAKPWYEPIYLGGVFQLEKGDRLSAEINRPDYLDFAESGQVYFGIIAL
Description: (§1) In vitro L929 cell proliferation/cytotoxicity assay was performed on microtiter plates. L929 cells were cultured in Eagle's Minimal Essential Medium (EMEM) containing 10% bovine serum, 1% P/S and 1% non-essential amino acid. Confluent L929 cells were washed with 2 ml PBS solution and then trypsinized, followed by resuspending in complete medium. Two hundred μl cell suspension was aspirated for counting the cell density and the other suspension was centrifuged at 1500 rpm for 5 min. The supernatant was removed and the complete medium was added to dilute cells to a final concentration of 1.5×10^5 cells/ml. One hundred μl of cell suspension was added to each well in 96-well flat-bottomed microtiter plates and incubated for 24 hrs in 5% CO2 atmosphere at 37° C.
The chemical was resuspended in 1×PBS and sterilized with 0.22 μm filters. […]
(§2) The same samples as those for TNFα activity assay were added to the 96-well plate with the medium containing Act D to give the final concentration of Act D 2 μg/ml. […] 50 μl XTT (2,3-bis(2-methoxy-4-nitro-5-sulfophenyl)-5-[((phenylamino)carbonyl]-2H-tetra -zolium hydroxide) mixture was added to each well, and incubated for 4 hrs. Read with ELISA reader at O.D. 490/630 nm. Calculation of the TNFα Activity Inhabitation and Cytotoxicity [formula] [formula] 8. The Effect of the Methanolic Extract of A. Paniculata on L929 Cell Proliferation/Cytotoxicity Assay

L929 cells = test: Cytotoxicity on L929 cells (XTT, with Act D, without TNFα); format: cell-based; settings: at the IC50 concentration (60 μM)
Description: as §1, §2

[2] = CIA rats, 3rd day after treatment stopped (T4)
[3] = CIA rats, 7th day after treatment stopped (T5)

Row | SMILES | decreased percentage of edema [1, 2] [%] | decreased percentage of edema [1, 3] [%] | decreased percentage of edema volume of hind paws ([1]; CIA rats, during the 7-day treatment (T3, 6th day of treatment)) [%] | histopathological slice of joint ([1]; treated IP) | histopathological slice of joint ([1]; treated by external application) | histopathological slice of joint ([1]; treated by oral) | IC50 (TNFα) [µM] | cytotoxicity (L929 cells)
1 | C=C1CC[C@@H]2[C@](C)(CO)[C@H](O)CC[C@@]2(C)[C@@H]1C/C=C1/C(=O)OC[C@H]1O [andrographolide, Andrographolide] | 61.43 | 50.24 | 48.1 | Proliferation of synovial lining cell and infiltration of erythrocytes and some lymphocytes were observed | Proliferation of synovial lining cell and loosely connective tissues appeared | Proliferation of synovial lining cell and infiltration of lymphocytes were found | 60 | No cytotocixity was found
2 | C[C@@H]1C[C@H]2[C@@H]3CCC4=CC(=O)C=C[C@]4(C)[C@@]3(F)[C@@H](O)C[C@]2(C)[C@@]1(O)C(=O)CO [dexamethasone, Dexamethasone, reference compound] | 28.21 | 29.97 |  |  |  |  |  | 
